Data as given in patent US10479792B2, “Compounds” (GlaxoSmithKline Intellectual Property Development Limited, priority 2015, dated 2019).

Legend:
THP-1 cells = assay: Intramacrophage Leishmania donovani assay (Assay 1), THP-1 cell count (cytotoxicity readout); format: cell-based; conditions: human, 96 h incubation, read-out: cytotoxicity against THP-1 cells, pEC50 (converted)
Procedure: Assay 1. Intramacrophage Leishmania donovani Assay
The intramacrophage Leishmania assay was performed using a modified version of the method described in De Rycker et al. (Antimicrob Agents Chemother. 2013 July; 57(7):2913-22. Comparison of a high-throughput high-content intracellular Leishmania donovani assay with an axenic amastigote assay. De Rycker M, Hallyburton I, Thomas J, Campbell L, Wyllie S, Joshi D, Cameron S, Gilbert I H, Wyatt P G, Frearson J A, Fairlamb A H, Gray D W.). Procedure: 350 nl of compound was pre-dispensed into 384 well sterile intermediary plates. For single point screening, amphotericin B was added to all wells of column 24 as a positive control (final concentration 2 μM) and DMSO to column 23. For potency determinations, ten-point, one in three dilution curves were created with the highest concentration being 50 μM and on each plate a control curve of amphotericin B was included. Controls were as follows: columns 11 and 12: DMSO, columns 23 and 24: amphotericin B (final concentration 2 μM). To the intermediary plates, 35 μl of THP-1 media was added and plates were shaken for >5 min to ensure complete mixing. […] For each well, i) THP-1 cell count (cytotoxicity readout) and ii) average number of amastigotes per cell (potency readout) were calculated, both in terms of pEC50 values.

Trypanosoma brucei = Trypanosoma brucei cell growth inhibition assay (Assay 3); format: cell-based, T. b. brucei, BSF427, VSG118; conditions: 69 h + 4 h resazurin, read-out: pEC50 value against Trypanosoma brucei (converted)
Procedure: Assay 3. Trypanosoma brucei Cell Growth Inhibition Assay
Measurement of the ability of the compounds to inhibit trypanosome (T. b. brucei, BSF427, VSG118) cell growth was performed using a modification of the cell viability assay previously described by Raz et al. (Raz B.; Iten M.; Grether-Buhler Y.; Kaminski R.; Brun R. The Alamar Blue assay to determine drug sensitivity of African trypanosomes (T. b. rhodesiense and T. b. gambiense) in vitro. Acta Trop. 1997, 68, 139-147). Compounds were dissolved in DMSO at a top concentration of 10 mM and serially diluted in half log steps to achieve a range of final assay concentrations of 50 μM to 0.5 nM. Compound at each concentration (200-fold final) was added to clear 96-well tissue culture plates in a volume of 1 μL. […] Plates were then read on a BioTek flx800 fluorescent plate reader, and percentage inhibition was compared to the maximum and minimum assay controls. Concentration effect curves were fitted using nonlinear regression using XLFit 4.2 and EC50 values determined.

Trypanosoma cruzi = Trypanosoma cruzi intracellular assay (Assay 2); format: cell-based; conditions: infected H9C2 rat cardiomyocytes, 72 h incubation, read-out: pEC50 value against Trypanosoma cruzi (converted)
Procedure: Compounds were dispensed into black 384-well assay plates (Greiner) by acoustic dispensing (LabCyte ECHO). For potency determinations, eleven-point, one in three dilution curves were generated, with a top concentration of 50 μM. H9C2 rat cardiomyocytes cells were dispensed in T225 tissue culture flasks and after 4 hours they were infected during 18 hours with T. cruzi trypomastigotes in the same T225 tissue culture flasks at a multiplicity of infection of 1. Next, any remaining free trypomastigotes were washed away with PBS and the infected H9C2 cells were harvested by trypsinisation. The infected H9C2 cells were then plated into 384-well plates containing the compounds to be tested, at 2500 cells per well in DMEM media with 2% FBS, 1% Penicillin/Streptomicin, 2 mM L-Glutamine, 1 mM Na Pyruvate and 25 mM HEPES. After 72 h incubation at 37° C. in presence of 5% CO2, the plates were fixed and stained with 4% formaldehyde and 2 μM Draq5 for 3 hours at room temperature. The plates were imaged on a Perkin Elmer Opera high-content imaging system using a 20× air objective. Images were analyzed using the Acapella building blocks system (Perkin Elmer). The image analysis algorithm first identified the H9C2 nuclei followed by demarcation of the cytoplasm and identification of intracellular amastigotes. This algorithm reported mean number of parasites per H9C2 cell, the percentage of infected H9C2 cells and the total number of H9C2 cells.

How did the EC50 at 96 h (THP-1 cells) turn out when O=C(Nc1ccc(F)c(-c2ccn3c(N4CCOCC4)cnc3n2)c1)N1CCCC1 [Example 4, N-(4-fluoro-3-(3-morpholinoimidazo[1,2-a]pyrimidin-7-yl)phenyl)pyrrolidine-1-carboxamide] was run?
Its EC50 at 96 h is over 50.1 µM.

What about the EC50 (Trypanosoma brucei) of the same molecule?
The EC50 was 10 nM.

What about the EC50 (Trypanosoma cruzi) of the same molecule?
The EC50 was 39.8 nM.
